These are literature values, as cited in paper PMC5697638, “Identification of a Potent Phosphoinositide 3‐Kinase Pan Inhibitor Displaying a Strategic Carboxylic Acid Group and Development of Its Prodrugs” (Chemmedchem, 2017).

This series has as its system PI3Ks, all of the isoforms. Also on record: method as in PMID 8106507. To be noted: read-out: IC50 against all of the isoforms; cited from earlier work.

`O=c1cc(N2CCOCC2)oc2c(-c3ccccc3)cccc12` [LY294002]: the IC50 is roughly 500 nM.

The IC50 is the point on the concentration scale where inhibition reaches its midpoint.
